Entries after “also recorded” stand apart in the source; their conditions may differ.
How the values were obtained:
[1] = system: anemic mouse model (dietary anemia); assay: Anemic mouse model (dietary anemia), Ent by oral gavage; type: in vivo; details: female mice on iron-deficient diet
Description: The inventors fed 3-week old female mice an iron-deficient diet (IDD) (or control diet) for 6 weeks to induce anemia (confirmed by hemoglobin measurement). […] As generally shown in FIGS. 20A-B, feeding IDD caused a drastic reduction of both hemoglobin and iron levels. […] A commercial kit (BioAssay system) was used to obtain hemoglobin level. Under normal conditions, ˜70% of the iron absorbed from the intestine is used to generate hemoglobin, and only a small percent may be stored in the liver or other somatic tissues if iron is in excess. Under anemic conditions, a great percentage of iron that has entered mitochondria (then bound to heme) may be funneled to erythropoiesis. Therefore, it was not unexpected to see little impact of Ent supplementation on liver iron level (iron storage).

[2] = system: HEK293 cells; assay: Cellular iron level by Calcein AM fluorescence in HEK293 cells +/- iron chelator DFO; type: cell-based, human
Protocol: Here, a similar test was done in human HEK293 cells. […] The present inventors then created a low-iron condition by adding an iron chelator, Deferoxamine (DFO) to the medium (FIG. 18A). […] The assay was also performed using mouse intestinal epithelial (MODE-K) cells.

[3] = system: anemic mouse model (dietary anemia); assay: Anemic mouse model (dietary anemia), Ent in drinking water; type: in vivo; details: male mice on iron-deficient diet, two weeks
Protocol: The inventors fed 3-week old male mice an iron-deficient diet (IDD) (or control diet) for 5 weeks to induce anemia. They were then fed IDD +/− Ent added to the drinking water for two more weeks. Fresh dilutions of Ent in water were provided once per week. As generally shown in FIG. 21, mice continuously fed the iron-adequate control diet (CD) were included as the control. Hemoglobin level was measured by a Hemavet Blood Analyzer. Mean value±SD is shown.

[4] = system: HEK293T cells; assay: Mitochondrial iron level by fluorescent indicator RPA; type: cell-based, human
Description: Moreover, using siRNA knockdown (FIG. 13A), the present inventors observed that this Ent-mediated increase depended on ATP5A1 (FIG. 6E, F) in a similar manner as that in the assays for C. elegans (FIG. 5A, D). The present inventors also measured the mitochondrial iron level in cells by using the fluorescent mitochondrial iron indicator, RPA, to which iron binding quenches its fluorescence. […] The relatively smaller changes seen for cultured cells, compared to the difference in worms fed heat-killed food (FIG. 2), may potentially be due to the higher base iron level under the cell culturing condition.
Mitochondrial iron measurement in mammalian cells. The mitochondrial iron pools were determined as described (Mena et al., 2015). Briefly, cells were loaded for 20 min at 37 ° C. with 2 uM of the mitochondrial iron chelator rhodamine B-[(1,10-phenanthrolin-5-yl) aminocarbonyl]benzyl ester (RPA). After washing, the cells were imaged by fluorescence microscopy.

[5] = system: C. elegans; assay: Siderophore toxicity test: worm growth and mitochondrial morphology (mtGFP); type: in vivo; details: in vivo
Description: FIG. 8. Bacterial enterobactin promotes C. elegans development. […] (8E) The entA- and entF-mutant E. coli strains colonized the host gut as efficiently as the parental wild-type strain. (FIG. 8F) Cartoon diagram of feeding condition, microscope images and bar graph showing that neither pyoverdine nor ferrichrome caused obvious growth defects in worms fed heat-killed food plus wild-type, live E. coli. (FIG. 8G) Fluorescence microscopy of worms containing mtGFP under the same feeding condition as in (FIG. 8F). […] “n” =number of worms scored. Data are represented as mean±SEM. ***P<0.0001.

[6] = system: liposomes; assay: Iron traffic across the lipid bilayer of synthetic liposomes +/- ATPSα; type: biochemical
Protocol: ATPSα (ATP-1 or ATP5A1) was added to the liposome by an established method. […] The Calcein AM dye was added to liposomes +/− ATPSα and the fluorescence intensity of the liposome was measured; (B) Liposomes were incubated with radiolabel ed Fe^3+ (''FeCl3) and the radioactivity (relative CPM) of the liposome was measured. Method (A) measures iron inside the liposome, since calcein AM is only inside.

[7] = system: germ-free (GF) mice; assay: Growth of germ-free mice colonized with entF- E. coli, Ent in drinking water; type: in vivo; details: GF female mice colonized with entF- E. coli, drinking water pH 5.5
Protocol: As generally shown in FIG. 23, (A) Five-week old female germ-free (GF) mice were colonized with a single non-pathogenic E. coli (K12) strain, wild type or entF-(Ent-deficient E. coli). Mouse growth (weight gain) was measured for the following 4 weeks. […] Iron level was measured.

O=C(N[C@H]1COC(=O)[C@@H](NC(=O)c2cccc(O)c2O)COC(=O)[C@@H](NC(=O)c2cccc(O)c2O)COC1=O)c1cccc(O)c1O [Ent, enterobactin]
iron level in the spleen ([1]; oral gavage): increased in the spleen
hemoglobin level ([1]; oral gavage once every two days for two weeks): partially but significantly recovered
decrease in Calcein AM fluorescence with Ent addition ([2]; medium with DFO, Ent 1.5 uM): 45%
iron level recovery ([2]; medium with DFO, Ent 1.5 uM): mostly recovered; also recorded: largely recovered
increase of cellular iron uptake ([2]; standard culture medium): ~33%
hemoglobin level [3]: significantly improved
mitochondrial iron level (RPA) [4]: increased the mitochondrial iron level
iron-boosting effect of Ent (RPA) ([4]; cells treated with ATP5A1 siRNA): not seen
mitochondrial morphology (mtGFP) [5]: did not disrupt mitochondrial morphology
level of iron inside the liposome (Calcein AM) ([6]; FeCl3 +/- Ent 1.5 uM): clearly boosted
level of iron associated with the liposome (radioactivity) ([6]; radiolabeled FeCl3 +/- Ent 1.5 uM): clearly boosted
growth (weight gain) [7]: overcomes growth delay

From patent US20210187014A1 (The Regents of the University of Colorado, a body corporate, priority 2018, published 2021)
